Assay [1] concerns Human Jurkat T-cells (clone N). Put plainly: Jurkat T-cell activation (anti-TCR, CD69 upregulation). In kind it is cell-based. In short, it runs like this: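 Jurkat cells in RPMI + 5% FBS preincubated with compound 1 h at 37 °C, then stimulated with anti-TCR C305 at 500 ng/ml for 20 h. CD69 surface expression stained with anti-CD69-APC and read by flow cytometry; IC50 versus solvent-only control.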

The test system of assay [2] is cultured human mast cells (CHMC). Put plainly: CHMC low cell density IgE activation: tryptase assay. The conditions noted are these: low cell density; read-out: CHMC anti-IgE Tryptase. Type of assay: cell-based. Put shortly:
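Cells pelleted, taken up in warm MT, plated at 1000-1500/well, held 1 hr 37° C. Anti-IgE added, 30 min 37° C. Plates spun; supernatant mixed with tryptase substrate, 30 min RT.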

Assay [3] relates to bone marrow derived mast cells (BMMC). Put plainly: BMMC high cell density IgE activation: TNFalpha. Type of assay: cell-based, mouse. The conditions noted are these: high cell density; read-out: BMMC anti-IgE TNF-alpha. Here is the method:
(§1) After sensitizing, cells are counted, pelleted (1000 rpm, 5-10 minutes), and resuspended at 1-3×10^6 cells/ml in MT buffer. Add 100 ul of cell suspension to each well and 100 ul of compound dilutions. The final vehicle concentration is 0.5% DMSO. Incubate at 37° C. (5% CO2) for 1 hour. After 1 hour of compound treatment, stimulate cells with 6× stimulus (60 ng/ml DNP-BSA). Mix wells with the cells and allow plates to incubate at 37° C. (5% CO2) for one hour. After 1 hour incubation, pellet cells (10 minutes, 1000 RPM) and collect 200 ul per well of the supernatant, being careful not to disturb pellet, and transfer to a clean tube or 96-well plate. Place the supernatant plate on ice. During the 4-5 hour step (see next) perform the hexosiminidase assay. Resuspend cell pellet in 240 ul WEI-conditioned media containing 0.5% DMSO and corresponding concentration of compound. Incubate BMMC cells for 4-5 hours at 37° C. (5% CO2). After incubation, pellet cells (1000 RPM, 10 minutes) and collect 225 ul per well and place in −80° C. until ready to perform ELISAS. ELISAS are performed on appropriately diluted samples (determined empirically for each donor cell population so that the sample measurement falls within the standard curve) following the supplier's instructions.

The target of another assay is T1, Syk kinase (Homo sapiens, UniProt P43405).
T1 construct: purchased Upstate, Lake Placid NY
Nature of the assay: Syk kinase biochemical fluorescence polarization assay. Particulars: isolated Syk kinase, fluorescence polarization, 4 uM ATP.

Assay [4] concerns Primary T-cells. Nature of the assay: Primary T-cell cytokine production (αCD3/αCD28): IL-2. Type of assay: cell-based, human. The conditions noted are these: read-out: 1° T-Cell IL2 IC50. Here is the method: (§2) 2E8-4E8 PBMC or proliferating T cells grown in rIL-2 from healthy human donors were suspended in PBS were spun down (1500 rpm, 8-10 minutes) and resuspended in 100 ml RPMI Complete media (1% Pen-Strep, 1% L-Glutamine, 10 mM HEPES). The cells were plated in T175 flasks (37° C., 5% CO2) and monocytes were allowed to adhere for 2-3 hours. After monocyte attachment, non-adherent cells were harvested, counted by hemocytometer, washed several times with PBS then resuspended in Yssels Complete Media (Modified IMDM Media with 1% Human AB Serum, 1% Pen-Strep, 1% L-Glutamine, 10 mM HEPES) at […]. 90 uL of the cell dilution were then added to compounds diluted to 2× in Yssel's media and incubated for 30 minutes at 37° C. (5% CO2). After this preincubation step the compound/cell mixture was transferred to stimulation plates, as described below.
(§3) Stimulation plates were prepared by coating 96 well plates with 5 μg/ml αCD3 (BD PharMingen, Catalog #555336)+10 μg/ml αCD28 (Beckman Coulter, Catalog #IM1376) in PBS (no Ca^2+/Mg^2+) at 37° C. (5% CO2) for at 3-5 hours. After incubation with the stimulation antibodies, the cocktail was removed and the plates washed 3 times with PBS prior to addition of the primary T cell/compound mixture.
(§4) The compound/cell mixture was transferred to the stimulation plates and incubated for 18 hr at 37° C. (5% CO2). After the cell stimulation, ˜150 μl supernatant were transferred from each well into 96-well filter plates (Coming PVDF Filter Plates) spun down (2000 rpm, 2-3 minutes) and either used immediately for ELISA or LUMINEX measurements or frozen down at −80° C. for future use.
IL-2 ELISAs were performed using the Quantikine Human IL-2 ELISA kit (R&D Systems, Catalog # D2050) as described by the manufacturer and absorption was measured on a spectrophotometer at 450 nm wavelength. Blank values were substracted and absorbances were converted to pg/mL based on the standard curve.
(§5) Luminex immunoassay multiplexing for TNF, IL-2, GMSCF, IL-4 and IFNg was performed essentially as described by the manufacturer (Upstate Biotechnology). Essentially 50 uL of sample was diluted into 50 uL assay diluent and 50 uL incubation buffer, then incubated with 100 uL of the diluted detection antibody for 1 hr at RT in the dark. The filter plate was washed 2× in Wash Buffer, then incubated with 100 uL of the diluted secondary reagent (SAV-RPE) for 30 min at RT in the dark. Finally the plates were washed 3 times and bead identification and RPE fluorescent measured by the Luminex instrument.
(§6) Varied concentrations of compound were compared to solvent only to determine the inhibition of T-cell activation IC50 of each compound.

In assay [5] the test system is Primary T-cells. Nature of the assay: Primary T-cell cytokine production (αCD3/αCD28): IFNg. Particulars: read-out: 1° T-Cell IFNg IC50. Type of assay: cell-based, human. Here is the method:
as §2, §3, §4, §5, §6

For assay [6], the system named is cultured human mast cells (CHMC). Put plainly: CHMC low cell density ionomycin activation: tryptase assay. Type of assay: cell-based. The conditions noted are these: low cell density; read-out: CHMC Ionomycin Tryptase.
For assay [7], the system named is Primary T-cells. Put plainly: Primary T-cell cytokine production (αCD3/αCD28): IL-4. In kind it is cell-based, human. The conditions noted are these: read-out: 1° T-Cell IL4 IC50. The method, then: as §2, §3, §4, §5, §6
Assay [8] concerns Primary T-cells. Put plainly: Primary T-cell cytokine production (αCD3/αCD28): GMSCF. Type of assay: cell-based, human. Particulars: read-out: 1° T-Cell GMSCF IC50. The method, then:
as §2, §3, §4, §5, §6

Assay [9] concerns Primary T-cells. Nature of the assay: Primary T-cell cytokine production (αCD3/αCD28): TNF. Type of assay: cell-based, human. The conditions noted are these: read-out: 1° T-Cell TNF IC50. Here is the method: as §2
(5% CO2) for at 3-5 hours. After incubation with the stimulation antibodies, the cocktail was removed and the plates washed 3 times with PBS prior to addition of the primary T cell/compound mixture.
as §4, §5, §6

For assay [10], the system named is bone marrow derived mast cells (BMMC). Put plainly: BMMC high cell density IgE activation: hexosaminidase. In kind it is cell-based, mouse. Particulars: high cell density; read-out: BMMC anti-IgE Hexos.
The test system is the same in assay [11]. Nature of the assay: BMMC high cell density IgE activation: IL-6. In kind it is cell-based, mouse. Particulars: high cell density; read-out: BMMC anti-IgE IL-6. Here is the method:
as §1

Here are results for one compound from patent US8158621B2, “Methods of treating or preventing autoimmune diseases with 2,4-pyrimidinediamine compounds” (Rigel Pharmaceuticals, Inc., priority 2002, dated 2012).

SMILES strings stand for the structures.

Regarding `CNC(=O)COc1cccc(Nc2ncc(F)c(Nc3ccc4c(c3)NC(=O)[C@H](C)O4)n2)c1` [Compound R909317], the IC50 in assay [1] came to 224 nM; in assay [2], 28.7 nM; in [3], 7 nM; on Syk kinase, 8 nM; in the assay with Primary T-cells [4], 1320 nM; in the assay with Primary T-cells [5], 1570 nM. Also, the IC50 in assay [6] was more than 10000 nM; in the assay on Primary T-cells [7], 876 nM; in the assay with Primary T-cells [8], 1740 nM; in the assay on Primary T-cells [9], 595 nM; in [10] it was 2 nM; in assay [11], 6 nM.
